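Step 1: Grow cells in 96-well plates. Step 2: Expose to compound for 48 hours at 5 concentrations. Step 3: Interpolate endpoints linearly; if unreached, use highest concentration. At the GI50, growth is halved.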 Calls of active or inactive are those of the source. Rule as the data show it: active = GI50 up to about 1.1 µM and inactive = higher.
Assays:
Experiment in all cases: growth of human tumour cells (NCI), 48 h
HCT-116 = system: HCT-116
CAKI-1 = system: CAKI-1
T47D = system: T47D
DU-145 = system: DU-145
SK-MEL-2 = system: SK-MEL-2
EKVX = system: EKVX
PC-3 = system: PC-3
SK-OV-3 = system: SK-OV-3
SF-295 = system: SF-295
HT-29 = system: HT-29
CCRF-CEM = system: CCRF-CEM
OVCAR-4 = system: OVCAR-4
SF-539 = system: SF-539
OVCAR-3 = system: OVCAR-3
OVCAR-5 = system: OVCAR-5
OVCAR-8 = system: OVCAR-8
SW-620 = system: SW-620
SR = system: SR
SK-MEL-28 = system: SK-MEL-28
UO-31 = system: UO-31

Compound	GI50 (HCT-116)	GI50 (CAKI-1)	GI50 (T47D)	GI50 (DU-145)	GI50 (SK-MEL-2)	GI50 (EKVX)	GI50 (PC-3)	GI50 (SK-OV-3)	GI50 (SF-295)	GI50 (HT-29)	GI50 (CCRF-CEM)	GI50 (OVCAR-4)	GI50 (SF-539)	GI50 (OVCAR-3)	GI50 (OVCAR-5)	GI50 (OVCAR-8)	GI50 (SW-620)	GI50 (SR)	GI50 (SK-MEL-28)	GI50 (UO-31)
c1ccc2nn(C3CCCO3)nc2c1 (stereo unspecified)	> 100 µM (inactive)	> 100 µM (inactive)	> 100 µM (inactive)	> 100 µM (inactive)	> 100 µM (inactive)	> 100 µM (inactive)	> 100 µM (inactive)	> 100 µM (inactive)	> 100 µM (inactive)	> 100 µM (inactive)	> 100 µM (inactive)	> 100 µM (inactive)	> 100 µM (inactive)	> 100 µM (inactive)	> 100 µM (inactive)	> 100 µM (inactive)	–	–	–	–
CN1c2ccccc2C(=O)NC12CCN(CC1COc3ccccc3O1)CC2 (stereo unspecified)	37.3 µM (inactive)	–	21.2 µM (inactive)	61 µM (inactive)	–	51.6 µM (inactive)	–	> 100 µM (inactive)	57.7 µM (inactive)	31.9 µM (inactive)	36.1 µM (inactive)	29.9 µM (inactive)	36.4 µM (inactive)	–	48.6 µM (inactive)	60.5 µM (inactive)	77.8 µM (inactive)	23.8 µM (inactive)	55.3 µM (inactive)	16.9 µM (inactive)
NCCNCC1CCNCC1	> 100 µM (inactive)	> 100 µM (inactive)	> 100 µM (inactive)	> 100 µM (inactive)	> 100 µM (inactive)	> 100 µM (inactive)	> 100 µM (inactive)	> 100 µM (inactive)	> 100 µM (inactive)	> 100 µM (inactive)	–	> 100 µM (inactive)	> 100 µM (inactive)	> 100 µM (inactive)	> 100 µM (inactive)	> 100 µM (inactive)	> 100 µM (inactive)	> 100 µM (inactive)	> 100 µM (inactive)	> 100 µM (inactive)
CN(N=O)C(=O)Nc1c[nH]c(=O)[nH]c1=O	> 100 µM (inactive)	> 100 µM (inactive)	> 100 µM (inactive)	> 100 µM (inactive)	> 100 µM (inactive)	> 100 µM (inactive)	> 100 µM (inactive)	> 100 µM (inactive)	> 100 µM (inactive)	> 100 µM (inactive)	> 100 µM (inactive)	> 100 µM (inactive)	> 100 µM (inactive)	> 100 µM (inactive)	> 100 µM (inactive)	> 100 µM (inactive)	> 100 µM (inactive)	–	> 100 µM (inactive)	> 100 µM (inactive)
CCOC(=O)Cc1cc(=O)[nH]c(-n2[nH]c(C)c(CCO)c2=O)n1	> 100 µM (inactive)	> 100 µM (inactive)	> 100 µM (inactive)	> 100 µM (inactive)	> 100 µM (inactive)	> 100 µM (inactive)	> 100 µM (inactive)	> 100 µM (inactive)	> 100 µM (inactive)	> 100 µM (inactive)	> 100 µM (inactive)	> 100 µM (inactive)	> 100 µM (inactive)	> 100 µM (inactive)	> 100 µM (inactive)	> 100 µM (inactive)	> 100 µM (inactive)	–	> 100 µM (inactive)	> 100 µM (inactive)
CC(=O)OCC(C)C1=C(OC(C)=O)C(=O)C2(C)C/C=C(/C)CC/C=C(\C)CCC(OC(C)=O)C(C)CCC12 (stereo unspecified)	16.9 µM (inactive)	–	16.1 µM (inactive)	20.1 µM (inactive)	15 µM (inactive)	–	14.3 µM (inactive)	–	15.8 µM (inactive)	17.8 µM (inactive)	22.4 µM (inactive)	17.4 µM (inactive)	22.2 µM (inactive)	–	12.8 µM (inactive)	19.1 µM (inactive)	19.5 µM (inactive)	17.9 µM (inactive)	17.3 µM (inactive)	16.8 µM (inactive)
CCC1c2[nH]c3ccccc3c2C[C@H]2C(=O)NC(CCC(=O)OC(C)(C)C)C(=O)N12 (stereo partly specified)	43.3 µM (inactive)	> 100 µM (inactive)	40.6 µM (inactive)	> 100 µM (inactive)	60.8 µM (inactive)	42.6 µM (inactive)	33.7 µM (inactive)	63.5 µM (inactive)	42.3 µM (inactive)	34 µM (inactive)	–	41.4 µM (inactive)	–	22.4 µM (inactive)	62.1 µM (inactive)	48.4 µM (inactive)	67.3 µM (inactive)	41.7 µM (inactive)	73.5 µM (inactive)	46.9 µM (inactive)
N#CCCN(CCC#N)c1ccc(/C=C2\N=C(c3ccccc3)N(c3ccc(Cl)cc3)C2=O)cc1	> 100 µM (inactive)	–	> 100 µM (inactive)	> 100 µM (inactive)	76.6 µM (inactive)	> 100 µM (inactive)	> 100 µM (inactive)	> 100 µM (inactive)	30.3 µM (inactive)	> 100 µM (inactive)	> 100 µM (inactive)	> 100 µM (inactive)	> 100 µM (inactive)	> 100 µM (inactive)	> 100 µM (inactive)	> 100 µM (inactive)	> 100 µM (inactive)	–	> 100 µM (inactive)	45.4 µM (inactive)
CCOC(=O)CSc1nc2ccccc2c(=O)n1N	> 100 µM (inactive)	> 100 µM (inactive)	> 100 µM (inactive)	40.9 µM (inactive)	> 100 µM (inactive)	> 100 µM (inactive)	> 100 µM (inactive)	–	> 100 µM (inactive)	68.4 µM (inactive)	–	> 100 µM (inactive)	> 100 µM (inactive)	> 100 µM (inactive)	> 100 µM (inactive)	32.8 µM (inactive)	> 100 µM (inactive)	> 100 µM (inactive)	> 100 µM (inactive)	> 100 µM (inactive)
O=C1CCC2CCC1C2 (stereo unspecified)	> 100 µM (inactive)	> 100 µM (inactive)	> 100 µM (inactive)	> 100 µM (inactive)	> 100 µM (inactive)	–	> 100 µM (inactive)	> 100 µM (inactive)	> 100 µM (inactive)	> 100 µM (inactive)	> 100 µM (inactive)	> 100 µM (inactive)	> 100 µM (inactive)	> 100 µM (inactive)	> 100 µM (inactive)	> 100 µM (inactive)	–	–	> 100 µM (inactive)	> 100 µM (inactive)
COC(=O)C1=C(C(=O)OC)SC2(S1)C(C(=O)OC)=C(C(=O)OC)Sc1c2ssc1=O	0.459 µM (active)	1.43 µM (inactive)	1.12 µM (active)	0.877 µM (active)	1.78 µM (inactive)	2.16 µM (inactive)	1.43 µM (inactive)	8.97 µM (inactive)	11.4 µM (inactive)	0.585 µM (active)	0.076 µM (active)	1.22 µM (inactive)	1.15 µM (inactive)	0.904 µM (active)	2.11 µM (inactive)	1.34 µM (inactive)	0.661 µM (active)	–	1.46 µM (inactive)	1.63 µM (inactive)
O=C(c1ccncc1)C1C(=O)c2ccccc2C1C1(O)c2ccccc2CC1C(O)c1ccncc1 (stereo unspecified)	28.2 µM (inactive)	34.7 µM (inactive)	50.8 µM (inactive)	–	23.6 µM (inactive)	33 µM (inactive)	–	7.96 µM (inactive)	31.4 µM (inactive)	35.6 µM (inactive)	–	27.9 µM (inactive)	77.6 µM (inactive)	–	65.6 µM (inactive)	60 µM (inactive)	71.8 µM (inactive)	36.7 µM (inactive)	89.3 µM (inactive)	13.9 µM (inactive)
O=C(CCC(=O)c1ccsc1)c1ccsc1	> 100 µM (inactive)	> 100 µM (inactive)	> 100 µM (inactive)	> 100 µM (inactive)	> 100 µM (inactive)	–	> 100 µM (inactive)	> 100 µM (inactive)	> 100 µM (inactive)	–	–	> 100 µM (inactive)	> 100 µM (inactive)	> 100 µM (inactive)	> 100 µM (inactive)	> 100 µM (inactive)	> 100 µM (inactive)	> 100 µM (inactive)	> 100 µM (inactive)	> 100 µM (inactive)
CC[C@@H]1CSC(/C=C/C2OC3OC(C)(C)OC3C3OC(C)(C)OC23)=N1 (stereo partly specified)	3.5 µM (inactive)	11.1 µM (inactive)	4.25 µM (inactive)	2.27 µM (inactive)	14.1 µM (inactive)	11.8 µM (inactive)	8.2 µM (inactive)	35.8 µM (inactive)	18.6 µM (inactive)	3.94 µM (inactive)	–	4.39 µM (inactive)	4.84 µM (inactive)	4.97 µM (inactive)	7.91 µM (inactive)	4.49 µM (inactive)	3.22 µM (inactive)	3.89 µM (inactive)	11.9 µM (inactive)	10.8 µM (inactive)
Cc1cc2c(cc1N)C(C)C1(CCC(=O)N2Cc2ccccc2)OCCO1 (stereo unspecified)	> 100 µM (inactive)	> 100 µM (inactive)	> 100 µM (inactive)	> 100 µM (inactive)	> 100 µM (inactive)	> 100 µM (inactive)	> 100 µM (inactive)	> 100 µM (inactive)	> 100 µM (inactive)	> 100 µM (inactive)	–	> 100 µM (inactive)	> 100 µM (inactive)	> 100 µM (inactive)	> 100 µM (inactive)	> 100 µM (inactive)	> 100 µM (inactive)	39.2 µM (inactive)	> 100 µM (inactive)	> 100 µM (inactive)
